Earlier results in article PMC2948132 (The Open Cardiovascular Medicine Journal, 2010).

Columns and labels:
[1] = system: classical or alternative C3 convertase; settings: ref [19]-[22]
[2] = system: primate-derived complement; settings: reference not given
[3] = system: complement-mediated ischemia/reperfusion injury

Compstatin
C3 convertase inhibition, in words [1]: known to inhibit classical or alternative C3 convertase by preventing C3 cleavage
species specificity of complement inhibition, in words [2]: only inhibits primate-derived complement

TP20: soluble CR1 decorated with fucosylated tetrasaccharide sialyl Lewisx
efficacy in animal models of transplantation and IR injury, in words ([3]; ref [11],[14],[49],[50]): effective

sCR1: Soluble complement receptor1
protection against IRI, in words ([3]; ref [45],[46]): successful in offering protection against IRI
